Results as given in paper PMC9814697, “β-Hydroxylation of α-amino-β-hydroxylbutanoyl-glycyluridine catalyzed by a nonheme hydroxylase ensures the maturation of caprazamycin” (Communications Chemistry, 2022).

Experiments:
[1] = target: T1, Cpz27 (Streptomyces sp. MK730-62F2, UniProt C4NCL4); experiment: LC-MS turnover; assay type: biochemical; settings: 1 mM, with 500 μM compound 13, 1 mM Mg, pH 8.0, 28 °C
T1 construct: pGM1202, Streptomyces lividans TK64, His6-tag kept

[2] = target: T2, Cpz15 (Streptomyces sp. MK730-62F2, UniProt C4NCK2); experiment: LC-MS turnover; assay type: biochemical; settings: 1 mM UMP, 1.5 mM αKG, ascorbate, FeSO4, pH 8.0, 28 °C; product uridine 5'-aldehyde
T2 construct: pET28a, E. coli BL21(DE3), His6-tag kept
T2 sequence (C4NCK2 1-274): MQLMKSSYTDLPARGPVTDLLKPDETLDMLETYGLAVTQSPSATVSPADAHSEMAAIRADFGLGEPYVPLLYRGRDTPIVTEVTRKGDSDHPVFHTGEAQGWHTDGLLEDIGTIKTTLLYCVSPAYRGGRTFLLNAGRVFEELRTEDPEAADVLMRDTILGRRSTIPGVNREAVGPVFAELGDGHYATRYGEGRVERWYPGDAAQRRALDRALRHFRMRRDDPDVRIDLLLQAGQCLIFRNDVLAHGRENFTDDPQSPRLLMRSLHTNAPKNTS

[3] = target: T3, Cpz10 (Streptomyces sp. MK730-62F2, UniProt C4NCJ7); experiment: X-ray crystal structure; assay type: binding
T3 construct: pET28a, E. coli BL21(DE3), His6-tag kept; homodimer in solution
T3 sequence (C4NCJ7 1-182): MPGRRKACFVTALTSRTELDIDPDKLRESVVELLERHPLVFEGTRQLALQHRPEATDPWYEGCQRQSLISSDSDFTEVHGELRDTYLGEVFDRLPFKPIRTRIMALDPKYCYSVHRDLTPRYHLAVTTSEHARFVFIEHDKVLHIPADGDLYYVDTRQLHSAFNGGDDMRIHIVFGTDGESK

[4] = substrate: CSCC[C@H](N)C(=O)O; experiment: LC assay, Michaelis-Menten; assay type: biochemical, Streptomyces sp. MK730-62F2; settings: pseudo-first order condition, αKG, ascorbate, FeSO4, pH 7.5, 28 °C, sulfoxidation to MSO

T1 sequence (C4NCL4 entry or part of it): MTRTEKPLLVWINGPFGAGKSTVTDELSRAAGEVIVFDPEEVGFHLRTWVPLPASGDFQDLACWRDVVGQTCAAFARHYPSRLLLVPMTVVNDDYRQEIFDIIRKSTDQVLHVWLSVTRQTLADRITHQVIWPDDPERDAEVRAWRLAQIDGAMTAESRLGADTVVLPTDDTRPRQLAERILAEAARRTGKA

Q: `Nc1ncnc2c1ncn2[C@@H]1O[C@H](COP(=O)(O)OP(=O)(O)OP(=O)(O)O)[C@@H](O)[C@H]1O` [ATP] was tested. Which LC-MS turnover [1] did it give?
A: at the expense of one molecule of ATP

Q: For `O=c1ccn([C@@H]2O[C@H](COP(=O)(O)O)[C@@H](O)[C@H]2O)c(=O)[nH]1` [UMP], which LC-MS turnover [2] is on record?
A: a new peak emerge on the LC trace concomitant with dwindling of UMP

Q: How did the X-ray crystal structure ([3]; formed in crystal from soaked αKG, with compound 12 and Fe1) turn out when `O=C(O)CCC(=O)O` [succinic acid] was run?
A: αKG soaked in the crystals has been converted to succinic acid

Q: How did the X-ray crystal structure ([3]; Fe1 present, 1.9 Å, bidentate to Fe1) turn out when `O=C(O)CCC(=O)C(=O)O` [αKG] was run?
A: two complexes (with αKG (PDB code: 7V4M)

B1: Cpz10 (Streptomyces sp. MK730-62F2) (protein)
chain: T3 sequence (C4NCJ7 1-182)
notes: pET28a, E. coli BL21(DE3), His6-tag kept; homodimer in solution
Q: For B1, which Km [4] is on record?
A: 892.1 ± 9 µM

Q: What about the kcat [4] of the same molecule?
A: 0.977 ± 0.013 s⁻¹
